Tests used:
[1] = tested on: Balb/c mice; type: in vivo
Description: (§1) Balb/c mice were obtained from Charles River Laboratories.
5-Fluorouracil (5-FU) and leucovorin (leucovorin) were obtained from Sigma-Aldrich. […] Gemcitabine was manufactured by Eli Lilly and purchased from Myoderm Inc.
Balb/c female mice were injected with combinations of 5-FU, leucovorin, 5,10-CH2-THFA, and gemcitabine. 5-FU, leucovorin, and 5,10-CH2-THFA were intraperitoneally injected (100 microliters/mouse, 0.6 mg/mouse/drug) for five consecutive days (days 1-5). Gemcitabine was intraperitoneally injected (100 microliters/mouse, 100 micrograms/mouse) every three days (days 1, 4, and 7). All drugs were injected using a 27 gauge insulin needle/syringe. Mouse weights were measured using an analytical balance prior to initiation of drug dosing (pretreatment) and on day 8.

[2] = tested on: human colon carcinoma HT-29; test: HT-29 Colorectal Carcinoma Nude Mouse Study #1 (tumor volume, survival); type: in vivo, Nude (nu/nu) mice; details: for mean tumor volume: 22 days following treatment initiation, mean±SEM, i.p. dosing, in mm³ (unit assumed)
Description: (§2) Nude (nu/nu) mice were obtained from Charles River Laboratories.
5-Fluorouracil (5-FU) was obtained from Calbiochem. Leucovorin (leucovorin) and oxaliplatin were obtained from Sigma-Aldrich.
Finally, cells were resuspended at 2×10^7 cells/ml in PBS. […] All drugs were dosed daily (0.6 mg/mouse/drug) for five consecutive days with the exception of anti-VEGF and oxaliplatin. Anti-VEGF was dosed once (100 microgram/mouse) on day 5. Oxaliplatin was dosed once on day 1 (0.3mg/mouse). In addition, 5,10-CH2-THFA or leucovorin were injected 20 minutes prior to 5-FU injection. Tumor sizes were measured every 2 to 3 days using calipers.
(§3) Statistical analysis of tumor and blood data was performed using GraphPad Prism scientific software. Bonferonni's T test was used to compare tumor sizes between multiple groups. The Logrank test was used to determine statistical differences between group survival curves. In some cases, in which only two groups were compared, Student's T test was used to determine the significance between group measurements.

[3] = tested on: human colon carcinoma HT-29; test: HT-29 Colorectal Carcinoma Nude Mouse Study #2 (doubling time, tumor volume, survival); type: in vivo, Nude (nu/nu) mice
From the text: as §2
5-Fluorouracil (5-FU) was obtained from Calbiochem. Leucovorin (leucovorin) and oxaliplatin were obtained from Sigma-Aldrich. 5,10 methylenetetrahydofolate was manufactured by Eprova AG. A monoclonal antibody to vascular endothelial growth factor (anti-VEGF) was either obtained from R&D Systems (clone 26503 recognizing the human VEGF isoform 165) or Genentech (Avastin).
Finally, cells were resuspended at 1×10^7 cells/ml in PBS. […] All drugs were dosed daily (0.6 mg/mouse/drug) for seven consecutive days with the exception of anti-VEGF, dosed twice (100 micrograms/mouse) on days 1 and 7. In addition, 5,10-CH2-THFA or leucovorin were injected 20 minutes prior to 5-FU injection. Tumor sizes were measured every 2 to 3 days using calipers.
as §3

[4] = tested on: Balb/c mice
Description: as §1
5-Fluorouracil (5-FU) was obtained from Calbiochem. Leucovorin (folinic acid) was obtained from Sigma-Aldrich.
All drugs were intraperitoneally injected (100 microliters/mouse, 0.6mg/mouse/drug) using a 28 gauge insulin needle/syringe. 200-250 microliters blood/mouse was collected by retro-orbital puncture into EDTA-coated microtainer tubes (VWR International) on days 0 (prior to drug injection), 8, and 13. Complete blood counts plus blood differentials were determined by Labcorp Corporation of America using a Bayer Advia 120 Hematology analyzer.

[5] = Weight loss toxicity in the Xeloda HT-29 nude mouse study; type: in vivo, Nude (nu/nu) mice; details: maximum toxicity grade, NCI CTC v3 (grade 1 5-<10% weight loss)
From the text: As a surrogate marker for drug toxicity, we examined mouse body weights over time. Using the National Cancer Institute's Common Toxicity Criteria version 3 grading system for weight loss (Table 11), the maximum toxicity grade of weight loss was plotted (FIG. 21). While Xeloda by itself was relatively nontoxic, inducing only grade 1 toxicity in 36% of the mice, leucovorin increased the overall grade 1-3 toxicity to 90% of mice. This increased toxicity is consistent with phase II human clinical trial results showing leucovorin increased Xeloda toxicity parameters such as diarrhea, vomiting, and mucosal inflammation (Van Cutsem, E., M. Findlay, B. Osterwalder, W. Kocha, D. Dailey, R. Pazdur, J. Cassidy, L. Dirix, C. Twelves, D. Allman, J. F. Seitz, J. Scholmerich, H. U. Burger, and J. Verweij. 2000. Capecitabine, an oral fluoropyrimidine carbamate with substantial activity in advanced colorectal cancer: results of a randomized phase II study. J Clin Oncol 18:1337).

[6] = tested on: human colon carcinoma HT-29; test: Nude mouse study on HT-29 colorectal tumor treatment with capecitabine (Xeloda) (doubling time, survival)
Description: Nude (nu/nu) mice were obtained from Simonsen Laboratories. Mice were 6-8 weeks old at the start of all studies. Mice were maintained in isolated, hepa-filter ventilated cages with 4 mice per cage at Perry Scientific's vivarium (San Diego, Calif.).
The human colon carcinoma HT-29 was obtained from American Tissue Culture Collection (ATCC). Cells were maintained in DMEM containing 10% fetal bovine serum (FBS), 2 mM 1-glutamine, 100 units/ml penicillin, and 100 micrograms/ml streptomycin (DMEM-10) in a 37° C., 10% CO2 humidified incubator. Cells were passaged every 2-3 days prior to in vivo experiments.
Capecitabine (Xeloda) was manufactured by Roche Laboratories (Nutley, N.J.) Leucovorin (leucovorin) was obtained from Sigma-Aldrich. 5,10 methylenetetrahydofolate (5,10-CH2-THFA) was manufactured by Eprova AG.
HT-29 cells were prepared for injection as follows: Confluent tissue culture flasks of HT-29 cells were washed once with PBS followed by cell detachment with trypsin. Detached cells were then washed once in DMEM-10 followed by one wash with PBS. Finally, cells were resuspended in PBS at 10^7 cells/ml. […] Tumor sizes and mouse body weights were measured every 2-4 days. Tumor volume was calculated using the following formula: tumor volume=(length×width^2)/2. […]

[7] = female, Balb/c, mouse, in vivo, 8 day
[8] = female, Balb/c, mouse, in vivo, 1 week following drug treatment

Nc1ccn([C@@H]2O[C@H](CO)[C@@H](O)C2(F)F)c(=O)n1 [gemcitabine]
weight loss toxicity grade [1, 7]: grade 1

O=c1[nH]cc(F)c(=O)[nH]1 [5-FU, 5-fluorouracil]
mean tumor volume ([2]; Nude mice bearing HT-29 tumor): 752.5±104.2
mice still alive (survival) ([2]; at completion of the study period (42 days), Nude mice bearing HT-29 tumor): 25%
mean tumor volume ([3]; 19 days following treatment initiation, mean±SEM, in mm³ (unit assumed)): 368.5±63.7
Tumor Doubling Time ([3]; from best-fit curve analysis, Nude mice bearing HT-29 tumor): 7.4 days
mice with Grade 3-4 lymphopenia ([4]; NCI grading on % of baseline lymphocyte levels (Grade 3 25-<50% LLN, Grade 4 <25% LLN), one week following drug treatment): 100%
grade 4 neutrophil toxicity mice with neutrophil cell counts between 0 and 99 ([4]; female, Balb/c, mouse, in vivo): 100%
mice with grade 4 neutrophil toxicity [4, 8]: 100%
mice with grade 4 platelet toxicity [4, 8]: 25%
mice with grade 2-3 weight loss toxicity [1, 7]: 100%
mice surviving for up to 14 days ([1]; normal Balb/c mice): 36%

O=C1[O][Pt]2([NH][C@@H]3CCCC[C@H]3[NH]2)[O]C1=O [Oxaliplatin, oxaliplatin]
mean tumor volume ([2]; Nude mice bearing HT-29 tumor): 875.0±90.6
response of HT-29 tumor to drug ([2]; largest tumors of all groups, FIG. 4): not responsive

CCCCCOC(=O)Nc1nc(=O)n([C@@H]2O[C@H](C)[C@@H](O)[C@H]2O)cc1F [Xeloda, N4-pentoxylcarbonyl-5′-deoxy-5-fluorocytidine]
mice with grade 1 weight loss toxicity (only grade seen) [5]: 36%
Tumor Doubling Time ([6]; from best-fit linear regression of exponential tumor growth, 14 consecutive days dosing): 10.1 days
survival ([6]; on day 33 of the experiment (day 1 = first day of drug dosing)): 38%

Reference: patent publication US20070280944A1, “Use of 5,10-Methylene Tetrahydrofolate for the Treatment of Cancer” (priority 2004, published 2007)
